Results reported in ChEMBL document CHEMBL6182861, “Structural modification of heptamethine indocyanine dyes with improved aqueous solubility and stability for photothermal therapy” (Eur J Med Chem, 2025).
The source made the active and inactive calls. The rule behind the calls is not given here.

What was measured:
HepG2 [1] = assay: Induction of apoptosis in human HepG2 cells at 3.12 uM incubated for 4 hrs followed by exposure to laser irradiation of 808 nm for 2 mins by Annexin V-FITC/PI staining based flow cytometry; format: functional, cell-based; settings: time 242.0 min
HepG2 [2] = assay: Induction of ROS generation in human HepG2 cells at 3.12 uM incubated for 4 hrs followed by exposure to laser irradiation of 808 nm for 2 mins by flow cytometry; format: functional, cell-based; settings: time 242.0 min
4T1 [3] = assay: Antitumor activity against mouse 4T1 cells implanted in female BALB/c mouse assessed as loosely arranged cells at 2.5 mg/kg, iv pretreated for 4 hrs followed by exposure to laser irradiation of 808 nm for 5 mins on every 2 days treated for 15 days by H and E staining based analysis; format: functional, organism-based; settings: time 15.0 day
Mitochondrial membrane [4] = assay: Inhibition of mitochondrial membrane potential in human HepG2 cells at 3.12 uM incubated for 24 hrs by flow cytometry; format: cell membranes
[5] = Photosensitizing property of compound assessed as generation of singlet-state oxygen at 10 uM exposed to laser irradiation of 808 nm for 2 mins by SOSG probe based analysis; format: functional
Mitochondrial membrane [6] = assay: Inhibition of mitochondrial membrane potential in mouse 4T1 cells at 3.12 uM incubated for 24 hrs by Rh123 probe based CLSM; format: cell membranes
[7] = Cytotoxicity against mouse NIH3T3 cells assessed as survival rate at 25 uM relative to control; format: toxicity, cell-based; settings: read-out: Survival
4T1 [8] = assay: Induction of ROS generation in mouse 4T1 cells at 3.12 uM incubated for 4 hrs followed by exposure to laser irradiation of 808 nm for 2 mins by DCFH-DA probe based CLSM; format: functional, cell-based; settings: time 242.0 min
[9] = Photosensitizing property of compound assessed as generation of singlet-state oxygen by ESR spectrometry; format: functional
Mitochondrial membrane [10] = assay: Inhibition of mitochondrial membrane potential in human HepG2 cells at 3.12 uM preincubated for 4 hrs followed by exposure to laser irradiation of 808 nm for 2 mins and subsequent incubation for 20 hrs by flow cytometry; format: cell membranes; settings: time 1442.0 min
Mitochondrial membrane [11] = assay: Inhibition of mitochondrial membrane potential in mouse 4T1 cells at 3.12 uM preincubated for 4 hrs followed by exposure to laser irradiation of 808 nm for 2 mins and subsequent incubation for 20 hrs by Rh123 probe based CLSM; format: cell membranes; settings: time 1442.0 min
4T1 [12] = assay: Induction of apoptosis in mouse 4T1 cells at 3.12 uM incubated for 4 hrs followed by exposure to laser irradiation of 808 nm for 2 mins by Annexin V-FITC/PI staining based flow cytometry; format: functional, cell-based; settings: time 242.0 min
Mitochondrial membrane [13] = assay: Inhibition of mitochondrial membrane potential in human HepG2 cells at 3.12 uM preincubated for 4 hrs followed by exposure to laser irradiation of 808 nm for 2 mins and subsequent incubation for 20 hrs by Rh123 probe based CLSM; format: cell membranes; settings: time 1442.0 min
[14] = Drug uptake in mouse 4T1 cells assessed as increase in fluorescence intensity at 3.12 uM incubated for 4 hrs by flow cytometry; format: ADME, cell-based; settings: 4t1, 4 h
[15] = Drug uptake in human HepG2 cells assessed as increase in fluorescence intensity at 3.12 uM incubated for 4 hrs by flow cytometry; format: ADME, cell-based; settings: hepg2, 4 h
[16] = Drug excretion in female BALB/c mouse bearing mouse 4T1 cells at 2.5 mg/kg, iv measured up to 12 hrs by fluorescence imaging analysis; format: ADME, organism-based; settings: in vivo
[17] = Toxicity in female BALB/c mouse bearing mouse 4T1 cells assessed as damage in heart at 2.5 mg/kg, iv pretreated for 4 hrs followed by exposure to laser irradiation of 808 nm for 5 mins on every 2 days treated for 15 days by H and E staining based analysis; format: organism-based; settings: in vivo, 360 h, time 15 day
[18] = Photothermal property of compound assessed as increase in photothermal conversion efficiency at 20 uM exposed to laser irradiation of 808 nm for 2 mins; format: functional
[19] = Drug uptake in mouse 4T1 cells assessed as increase in fluorescence intensity at 3.12 uM incubated for 4 hrs by CLSM; format: ADME, cell-based; settings: 4t1, 4 h
[20] = Toxicity in ICR mouse bearing mouse H22 cells assessed as damage in spleen at 2.5 mg/kg, iv pretreated for 4 hrs followed by exposure to laser irradiation of 808 nm for 5 mins on every 2 days treated for 15 days by H and E staining based analysis; format: organism-based; settings: in vivo, 360 h, time 15 day
Mitochondrial membrane [21] = assay: Inhibition of mitochondrial membrane potential in mouse 4T1 cells at 3.12 uM incubated for 24 hrs by flow cytometry; format: cell membranes
[22] = Drug uptake in human HepG2 cells assessed as increase in fluorescence intensity at 3.12 uM incubated for 4 hrs by CLSM; format: ADME, cell-based; settings: hepg2, 4 h
HepG2 [23] = assay: Induction of ROS generation in human HepG2 cells at 3.12 uM incubated for 4 hrs followed by exposure to laser irradiation of 808 nm for 2 mins by DCFH-DA probe based CLSM; format: functional, cell-based; settings: time 242.0 min
4T1 [24] = assay: Induction of ROS generation in mouse 4T1 cells at 3.12 uM incubated for 4 hrs followed by exposure to laser irradiation of 808 nm for 2 mins by flow cytometry; format: functional, cell-based; settings: time 242.0 min
[25] = Toxicity in female BALB/c mouse bearing mouse 4T1 cells assessed as damage in liver at 2.5 mg/kg, iv pretreated for 4 hrs followed by exposure to laser irradiation of 808 nm for 5 mins on every 2 days treated for 15 days by H and E staining based analysis; format: organism-based; settings: in vivo, 360 h, time 15 day
4T1 [26] = assay: Antitumor activity against mouse 4T1 cells implanted in female BALB/c mouse assessed as decrease in tumor weight at 2.5 mg/kg, iv pretreated for 4 hrs followed by exposure to laser irradiation of 808 nm for 5 mins on every 2 days treated for 15 days; format: functional, organism-based; settings: time 15.0 day
Mitochondrial membrane [27] = assay: Inhibition of mitochondrial membrane potential in mouse 4T1 cells at 3.12 uM preincubated for 4 hrs followed by exposure to laser irradiation of 808 nm for 2 mins and subsequent incubation for 20 hrs by flow cytometry; format: cell membranes; settings: time 1442.0 min
[28] = Toxicity in ICR mouse bearing mouse H22 cells assessed as damage in heart at 2.5 mg/kg, iv pretreated for 4 hrs followed by exposure to laser irradiation of 808 nm for 5 mins on every 2 days treated for 15 days by H and E staining based analysis; format: organism-based; settings: in vivo, 360 h, time 15 day
Mitochondrial membrane [29] = assay: Inhibition of mitochondrial membrane potential in human HepG2 cells at 3.12 uM incubated for 24 hrs by Rh123 probe based CLSM; format: cell membranes
[30] = Photothermal stability of compound at 60 degreeC at 20 uM exposed to laser irradiation of 808 nm for 2.5 mins; format: physicochemical
4T1 [31] = assay: Antitumor activity against mouse 4T1 cells implanted in female BALB/c mouse assessed as decrease in tumor volume at 1.8 mg/kg, iv treated for 4 hrs on every 2 days treated for 15 days; format: functional, organism-based; settings: time 15.0 day
HepG2 [32] = assay: Photothermal cytotoxicity against human HepG2 cells up to 25 uM preincubated for 4 hrs followed by exposure to laser irradiation of 808 nm for 2 mins and subsequent incubation for 20 hrs by MTT assay; format: functional, cell-based; settings: time 1442.0 min
4T1 [33] = assay: Antitumor activity against mouse 4T1 cells implanted in female BALB/c mouse assessed as cellular damage at 1.8 mg/kg, iv pretreated for 4 hrs followed by exposure to laser irradiation of 808 nm for 5 mins on every 2 days treated for 15 days by H and E staining based analysis; format: functional, organism-based; settings: time 15.0 day

| Structure (SMILES) | Activity (HepG2 [1]) | Activity (HepG2 [2]) | inhibition (Mitochondrial membrane [4]) | Activity [5] | inhibition (Mitochondrial membrane [6]) | viability at 25 µM [7] | Activity (4T1 [8]) | Activity [9] | inhibition (Mitochondrial membrane [10]) | inhibition (Mitochondrial membrane [11]) | Activity (4T1 [12]) | inhibition (Mitochondrial membrane [13]) | Drug uptake [14] | Drug uptake [15] | Activity [18] | Drug uptake [19] | inhibition (Mitochondrial membrane [21]) | Drug uptake [22] | Activity (HepG2 [23]) | Activity (4T1 [24]) | further results |
| --- | --- | --- | --- | --- | --- | --- | --- | --- | --- | --- | --- | --- | --- | --- | --- | --- | --- | --- | --- | --- | --- |
| COCCOCCOCCN1/C(=C/C=C/C(=C/C=C/C2=[N+](CCOCCOCCOC)c3ccccc3C2(C)C)C(=O)OC)C(C)(C)c2ccccc21.[I-] | Active | Active; Exhibited Only A Smaller Increase In Activity | Active; Certain Degree Of Inhibition Was Observed | Active | Active; Certain Degree Of Inhibition Was Observed | > 60% | Active; Exhibited Only A Smaller Increase In Activity | Active | Active; Significant Inhibition Was Observed | Active; Significant Inhibition Was Observed | Active | Active; Significant Inhibition Was Observed | Active | Active | Active; Highest Efficiency Observed Among Tested Compounds | Active | Active; Certain Degree Of Inhibition Was Observed | Active | Active; Exhibited Only A Smaller Increase In Activity | Active; Exhibited Only A Smaller Increase In Activity | Activity (4T1 [3]): Active; Drug excretion [16]: Active; Activity [17]: Non-toxic; Activity [20]: Non-toxic; Activity [25]: Non-toxic; Activity (4T1 [26]): Active; inhibition (Mitochondrial membrane [27]): Active; Significant Inhibition Was Observed; Activity [28]: Non-toxic; inhibition (Mitochondrial membrane [29]): Active; Certain Degree Of Inhibition Was Observed; Stability [30]: Stable |
| COC(=O)C(=C\C=C\C1=[N+](C)c2ccccc2C1(C)C)/C=C/C=C1/N(C)c2ccccc2C1(C)C.[I-] | Active | Active | Active; Certain Degree Of Inhibition Was Observed | inactive | Active; Certain Degree Of Inhibition Was Observed | > 60% | Active | Active | Active; Significant Inhibition Was Observed | Active; Significant Inhibition Was Observed | Active | Active; Significant Inhibition Was Observed | Active | Active | Not active; Lowest Efficiency Observed Among Tested Compounds | Active | Active; Certain Degree Of Inhibition Was Observed | Active | Active | Active | Activity (4T1 [31]): inactive; Activity (HepG2 [32]): Not active; Limited Photo-Thermal Toxicity Was Observed; Activity (4T1 [33]): Not active; Minor Cell Damage Was Observed; inhibition (Mitochondrial membrane [27]): Active; Significant Inhibition Was Observed; inhibition (Mitochondrial membrane [29]): Active; Certain Degree Of Inhibition Was Observed; Stability [30]: Unstable |
